In US20250302869A1, “USE OF INHALED NITRIC OXIDE (INO) FOR TREATING PATIENTS WITH PULMONARY HY[…] SARCOIDOSIS (PH-SARC)” (Mallinckrodt Pharmaceuticals Ireland Limited, priority 2022, published 2025):

Experiments:
[1] = system: patients with pulmonary hypertension associated with sarcoidosis (PH-SARC); test: Acute iNO dose escalation study, right heart catheterization hemodynamics (Phase 2, Part 1); format: in vivo, human; conditions: for PVR change from baseline: pulsed, 10 min, baseline median 329.4; for PVR change from baseline / CO percent change from baseline / PCWP percent change from baseline / PVR percent change from baseline / mPAP percent change from baseline / CO change from baseline / PCWP change from baseline / mPAP change from baseline: median (IQR); for CO change from baseline: baseline median 5.9; for PCWP change from baseline: baseline median 13.5; for mPAP change from baseline: baseline median 37.2
Text: Patients with sarcoidosis may develop pulmonary hypertension (PH) which is associated with an impaired quality of life and limitations on activities of daily living. The Phase 2 trial, was designed to determine the safety and clinical efficacy of pulsed iNO, a potent and well-established vasodilator, on sarcoidosis-associated with PH patients, as well as to evaluate the safe and effective dose of iNO in subjects on long term oxygen therapy (LTOT) with possible or definite pulmonary hypertension associated with sarcoidosis.
Sarcoidosis patients with PH on prior right heart catherization (RHC) or on echocardiography were enrolled in a two-part open label study. Patients underwent RHC, to establish baseline hemodynamics including mean pulmonary arterial pressure (mPAP), cardiac output (CO), pulmonary wedge pressure (PCWP) with derivation of pulmonary vascular resistance (PVR).
(§1) Patients were administered acute escalating doses of pulsatile iNO via an INOpulse device starting at 30 mcg/kg ideal body weight/hr (iNO30) and increasing up to 125 mcg/kg ideal body weight/hr (iNO125) to assess the impact of each dose level on hemodynamic parameters. Patients were treated with iNO for 10 minutes per dose with a 10-minute washout between doses.
Each dose level was followed by a washout period. All hemodynamic wave forms were reviewed by a blinded hemodynamic core lab for determination of end-exhalation PAP and PCWP. After the acute vasodilator study, subjects were eligible to participate in a long-term open label extension study at the dose of iNO found to be most beneficial by the RHC measurements, as determined by the investigator.
(§2) During the Treatment Visit of Part 1 of the study, subjects were admitted to the cardiac catheterization suite/ICU/CCU and a Swan Ganz Catheter was inserted, and subjects were monitored during acute exposure to iNO at 30, 45, 75, 125 mcg/kg IBW/hr. Hemodynamic changes were monitored during this part of the study. The primary endpoint for Part 1 of the study was to assess the change in mean pulmonary artery pressure (mPAP), pulmonary capillary wedge pressure (PCWP), cardiac output (CO) and pulmonary vascular resistance (PVR) on iNO 30, 45, 75, 125 mcg/kg IBW/hr compared to baseline. The Safety Endpoint includes incidence and severity of treatment emergent adverse events (AEs), including those related to device deficiency, symptoms that may be due to rebound associated with acute withdrawal of iNO: systemic arterial oxygen desaturation, hypoxemia, bradycardia, tachycardia, systemic hypotension, shortness of breath, near-syncope, and syncope, and change in oxygen saturation and vital signs.
The changes in hemodynamics were determined for absolute change (as shown in FIGS. 2A-2D) and percent change (as shown in FIGS. 2E-2H) from baseline in PVR, mPAP, CO and PCWP. The analysis depicted illustrates the change from baseline (box & whisker plot provides median, IQR, and min/max). Statistical analysis based on Wilcoxon […] was assessed between baseline and each dose as well as each dose and each prior dose and no correction was conducted for multiplicity.

[2] = system: patients with pulmonary hypertension associated with sarcoidosis (PH-SARC); test: Safety and tolerability in the acute iNO dose escalation study; format: in vivo, human
Experimental: as §1, §2

[N]=O [iNO, nitric oxide]
median mPAP reduction from baseline across the doses ([1]; across the doses of iNO30 to iNO125, baseline median mPAP 37.2 mmHg): 6-10% | patients demonstrating decreases in mPAP and PVR ([1]; across the doses of iNO from iNO30 to iNO125, blinded core lab, 8 patients): all 8 patients demonstrated decreases in mPAP and PVR | PCWP across all doses ([1]; all doses iNO30 to iNO125): remained stable | cardiac output (CO) across all doses ([1]; all doses iNO30 to iNO125): remained stable | PVR change from baseline ([1]; iNO30 (30 mcg/kg IBW/hr)): −19.2 (39.0) dyne*sec*cm-5 | CO percent change from baseline ([1]; iNO30 (30 mcg/kg IBW/hr)): −2.5% (11.2) | PCWP percent change from baseline ([1]; iNO30 (30 mcg/kg IBW/hr)): −4.1% (29.1%) | PVR percent change from baseline ([1]; iNO30 (30 mcg/kg IBW/hr)): −7.0% (10.6%) | mPAP percent change from baseline ([1]; iNO30 (30 mcg/kg IBW/hr)): −7.1% (10.0%) | CO change from baseline ([1]; iNO30 (30 mcg/kg IBW/hr)): −0.1 (0.6) L/min | PCWP change from baseline ([1]; iNO30 (30 mcg/kg IBW/hr)): −1.0 (4.3) mmHg | mPAP change from baseline ([1]; iNO30 (30 mcg/kg IBW/hr)): −2.7 (2.8) mmHg | PVR change from baseline ([1]; iNO45 (45 mcg/kg IBW/hr)): −48.4 (84.6) dyne*sec*cm-5 | CO percent change from baseline ([1]; iNO45 (45 mcg/kg IBW/hr)): 1.0% (6.5%) | PCWP percent change from baseline ([1]; iNO45 (45 mcg/kg IBW/hr)): 0.0% (20.5%) | mPAP percent change from baseline ([1]; iNO45 (45 mcg/kg IBW/hr)): −10.6% (15.8%) | CO change from baseline ([1]; iNO45 (45 mcg/kg IBW/hr)): 0.0 (0.3) L/min | PCWP change from baseline ([1]; iNO45 (45 mcg/kg IBW/hr)): 0.0 (2.5) mmHg | mPAP change from baseline ([1]; iNO45 (45 mcg/kg IBW/hr)): −4.0 (5.2) mmHg | median decrease of PVR from baseline ([1]; iNO45 dose, range −54% to +22%, baseline median PVR 329 dyne*sec*cm-5): 20% | PVR change from baseline ([1]; iNO75 (75 mcg/kg IBW/hr)): −68.0 (92.7) dyne*sec*cm-5 | CO percent change from baseline ([1]; iNO75 (75 mcg/kg IBW/hr)): 0.1% (6.1%) | PCWP percent change from baseline ([1]; iNO75 (75 mcg/kg IBW/hr)): 10.6% (29.5%) | PVR percent change from baseline ([1]; iNO75 (75 mcg/kg IBW/hr)): −15.3% (37.7%) | mPAP percent change from baseline ([1]; iNO75 (75 mcg/kg IBW/hr)): −6.3% (13.2%) | CO change from baseline ([1]; iNO75 (75 mcg/kg IBW/hr)): 0.0 (0.4) L/min | PCWP change from baseline ([1]; iNO75 (75 mcg/kg IBW/hr)): 1.5 (4.3) mmHg | mPAP change from baseline ([1]; iNO75 (75 mcg/kg IBW/hr)): −2.3 (3.9) mmHg | PVR change from baseline ([1]; iNO125 (125 mcg/kg IBW/hr)): −85.8 (67.1) dyne*sec*cm-5 | CO percent change from baseline ([1]; iNO125 (125 mcg/kg IBW/hr)): 4.2% (14.6%) | PCWP percent change from baseline ([1]; iNO125 (125 mcg/kg IBW/hr)): 0.0% (30.7%) | PVR percent change from baseline ([1]; iNO125 (125 mcg/kg IBW/hr)): −28.7% (20.8%) | mPAP percent change from baseline ([1]; iNO125 (125 mcg/kg IBW/hr)): −6.4% (11.0%) | CO change from baseline ([1]; iNO125 (125 mcg/kg IBW/hr)): 0.2 (0.8) L/min | PCWP change from baseline ([1]; iNO125 (125 mcg/kg IBW/hr)): 0.0 (4.0) mmHg | mPAP change from baseline ([1]; iNO125 (125 mcg/kg IBW/hr)): −3.0 (3.5) mmHg | median decrease of PVR from baseline ([1]; iNO125 dose, range −43% to −5%, p=0.02 vs. baseline and prior dose): 29% | tolerability ([2]; across all the doses iNO30 to iNO125): well-tolerated | adverse events or serious adverse events related to iNO ([2]; acute doses iNO30 to iNO125, 8 patients): No adverse events or serious adverse events related to iNO were reported
